Columns and labels:
Wheat [1] = settings: WW, 4000 ppm, 2-3 weeks
Apples = test: Intermediate Retardant Test, apples; format: in vivo, Apples (Red Delicious); settings: 672 h, ~28 days, Table IX, read-out: Percentage Reduction in Height of Apples (Compared to formulation blank)
Experimental: (§1) Three species are involved in this test RICE, SPRING-BARLEY and APPLES. The variety and growth stages at spray are outlined in Table VI. Compounds were applied at 1000 ppm and 4000 ppm respectively (1 kg and 4 kg ha^-1 at a field volume of 1000 l/ha^-1) as an overall spray. This gives a foliar and root component in the test, i.e. this test will detect the activity of both root and foliar acting compounds. The rice was grown in 4" `paddy` pots, i.e. the roots and bottom of the stems are immersed in water under conditions corresponding to those in paddy fields. Spring barley and apples were grown in 4" pots. The plants were assessed for height to top-most ligule at approximately 28 days after treatment for spring barley and rice and for height to apex at approximately 28 days after the treatment for apples. In each case the result for the 1000 ppm and 4000 ppm test for each compound is compared to the height of the formulation blank in that test, presented as a percentage reduction in height compared to the formulation blank.
as §1, with “in Table XIV. Compounds were” for “in Table VI. Compounds were”, “that test, and presented as” for “that test, presented as”

Tomato = settings: TO, 4000 ppm, 2-3 weeks
Maize = settings: MZ, 4000 ppm, 2-3 weeks
Experimental: (§5) The compounds were tested for plant growth regulator activity against up to tweleve plant species for various growth effects relevant to plant growth regulation.
(§6) After spray, the plants were grown in a glasshouse with 25° C. day/22° C. night temperatures and supplementary lighting was supplied when necessary (from mercury vapour lamps), to provide a 16 hour photoperiod. The exception to this were the temperate cereals, wheat and barley, which were grown in 16° C. day 13° C. night temperatures
(§7) After 2-3 weeks in the glasshouse, depending on the time of year, the plants were visually assessed for morphological characteristics. Formulations blanks were used as controls to assess the Plants.

Rice [2] = test: Intermediate Retardant Test, rice; format: in vivo, Rice (Ishikari); settings: Oryza sativa, 672 h, ~28 days, Table VII, read-out: Percentage Reduction in Height of Rice (Compared to formulation blank)
Experimental: as §1
as §1, with “in Table XIV. Compounds were” for “in Table VI. Compounds were”, “that test, and presented as” for “that test, presented as”

Spring Barley = test: Intermediate Retardant Test, spring barley; format: in vivo, Spring Barley (Atem/kym); settings: Hordeum vulgare, 672 h, ~28 days, Table VIII, read-out: Percentage Reduction in Height of Spring Barley (Compared to formulation blank)
Experimental: as §1
as §1, with “in Table XIV. Compounds were” for “in Table VI. Compounds were”, “that test, and presented as” for “that test, presented as”

Vines = settings: VN, 4000 ppm, 2-3 weeks
Experimental: as §5, §6, §7

Lettuce = settings: LT, 4000 ppm, 2-3 weeks
Dacrylis glomerata = settings: DA, 4000 ppm, 2-3 weeks
Experimental: as §5, §6, §7

Soya = settings: SY, 4000 ppm, 2-3 weeks
Barley [3] = settings: BR, 4000 ppm, 2-3 weeks
Experimental: as §5, §6, §7

Cynosurus cristatus = settings: CC, 4000 ppm, 2-3 weeks
Experimental: as §5, §6, §7

Agrostis tenius = settings: AT, 4000 ppm, 2-3 weeks
Sugar beet = settings: SB, 4000 ppm, 2-3 weeks
Experimental: as §5, §6, §7

[4] = tested on: plant species of Whole Plant Screen (1) or (2); test: Across screen comparison: total retardation relative to paclobutrazol (Whole Plant Screens (1) and (2)); format: in vivo; settings: compounds of Table I, Table X
From the text: The following Example is a general indicative comparison of compounds from EP No. 0052424 with compounds from the preferred class in the present invention. The compounds have not been side-by-side tested on this Example because of the large numbers involved but the retardant activity can be compared using a standard which has been on each test.
The compounds which are compared in this Example have been tested on one of two tests. These are the Whole Plant Screen (1) and Whole Plant Screen (2) the methods for which are described in Examples 17 and 18 respectively.
An across screen comparison between compounds is made by expressing the total retardation (ie. sum of retardation scores recorded for each species tested) caused by the compound as a percentage of the total retardation caused by the standard in that test. The standard chemical gives a measure of the performance of the test and environmental factors. By expressing the test compound activity as a percentage of the standard compound activity these factors can be eliminated . The same standard has been used in every test and this is paclobutrazol a proprietory growth regulator.

Barley [5] = test: Whole Plant Screen (2), barley; format: in vivo, Barley (Atem); settings: BR, 4000 ppm, 2-6 weeks, Table V
Experimental: (§2) Compound numbers 1, 5 and 7 (of the present invention) were tested against compounds A, B, C and D (compound Nos. 12, 2, 24 and 50 of Table 1 EP No. 0052424) on whole plant screen (2). The compounds were tested of plant growth regulator activity against five species and for various growth effects relevant to plant growth regulation. The structures are set out in FIG. 1.
(§3) The plant species used in this screen are presented in Table XII with the leaf stage at which they were sprayed Each chemical was applied at 4000 ppm (4 kg/ha in a 1000 l/ha field volume) using a tracksprayer and a SS8004E (Teejet) nozzle. […]

Rice [6] = test: Whole Plant Screen (2), rice; format: in vivo, Rice (Ishikari); settings: RC, 4000 ppm, 2-6 weeks, Table V
Experimental: (§4) After 2-6 weeks in the glasshouse, depending on the time of year, the plants were visually assessed for morphological characteristics. Formulation blanks were used as controls to assess the plants.
as §2, §3

Apple = test: Whole Plant Screen (2), apple; format: in vivo, Apple (Red Delicious); settings: Ap, 4000 ppm, 2-6 weeks, Table V
Experimental: as §4, §2, §3

Wheat [7] = test: Whole Plant Screen (2), wheat; format: in vivo, Wheat (Timmo); settings: WW, 4000 ppm, 2-6 weeks, Table V
Experimental: Compound numbers 12-13, 16-17 and 19-20 were tested on an alternative whole plant screen (2). The compounds were tested for plant growth regulator activity against five species for various growth effects relevant to plant growth regulation.
The plant species used in this screen are presented in Table IV with the leaf stage at which they were sprayed. Each chemical was applied at 4000 ppm (4 kg/ha in a 1000 l/ha field volume) using a tracksprayer and a SS8004E (Teejet) nozzle. […]
After 2-6 weeks in the glasshouse, depending on the time of year, the plants were visually assessed for morphological characteristics. Formulation blanks were used as controls to assess the plants. […]

SMILES	Retardation score (1-3) with greening (G), apical damage (A), tillering/side shooting (T) (Wheat [1])	percent reduction in plant height vs formulation blank at 1000 ppm (Apples)	percent reduction in plant height vs formulation blank at 4000 ppm (Apples)	Retardation score (1-3) with greening (G), apical damage (A), tillering/side shooting (T) (Tomato)	Percent reduction in rice plant height vs formulation blank at 4000 ppm (Rice [2])	height reduction vs blank at 1000 ppm (Spring Barley)	height reduction vs blank at 4000 ppm (Spring Barley)	Retardation score (1-3) with greening (G), apical damage (A), tillering/side shooting (T) (Vines)	Retardation score (1-3) with greening (G), apical damage (A), tillering/side shooting (T) (Lettuce)	Retardation score (1-3) with greening (G), apical damage (A), tillering/side shooting (T) (Dacrylis glomerata)	Retardation score (1-3) with greening (G), apical damage (A), tillering/side shooting (T) (Soya)	Retardation score (1-3) with greening (G), apical damage (A), tillering/side shooting (T) (Barley [3])	Retardation score (1-3) with greening (G), apical damage (A), tillering/side shooting (T) (Cynosurus cristatus)	Retardation score (1-3) with greening (G), apical damage (A), tillering/side shooting (T) (Agrostis tenius)	Percent reduction in rice plant height vs formulation blank at 1000 ppm (Rice [2])	Total Retardation expressed as a percentage of the total retardation caused by paclobutrazol [4]	I = Interligular or internodal length reduction (Barley [5])	A = Apical damage (Apple)	T = Tillering or side shooting (Apple)	T = Tillering or side shooting (Wheat [7])	other results
CCCCCCC#CC(O)(Cn1cncn1)C(C)(C)C (centres unmarked) [Compound 4, 2,2-dimethyl-3-hydroxy-3-(oct-1-yne-1-yl)-4-(1,2,4-triazol-1-yl)-butane]	1GT	8.2%	21%	2G	5.8%	23.7%	27.5%	1G	2 (21-60% retardation)	1 (10-30% retardation)	1G	–	–	–	–	–	–	–	–	–	Retardation score (1-3) with greening (G), apical damage (A), tillering/side shooting (T) (Maize): 1G
CCC(C)C#CC(O)(Cn1cncn1)C(C)(C)C (centres unmarked) [Compound 6, 2,2-dimethyl-3-hydroxy-3-(3-methyl-pent-1-yne-1-yl)-4-(1,2,4-triazol-1-yl)-butane]	3GT	1.2%	38.6%	1G	22.7%	0.8%	23.5%	2GT	1G	1 (10-30% retardation)	2GA	2G	1 (10-30% retardation)	1 (10-30% retardation)	11.2%	52.0 % of paclobutrazol	–	–	–	–	Retardation score (1-3) with greening (G), apical damage (A), tillering/side shooting (T) (Sugar beet): 1G
CCCC(C)C#CC(O)(Cn1cncn1)C(C)(C)C (centres unmarked) [Compound 9, 2,2-dimethyl-3-hydroxy-3-(3-methyl-hex-1-yne-1-yl)-4-(1,2,4-triazol-1-yl)-butane]	2GT	–	10.8%	2G	32%	15.7%	32.9%	2GT	1 (10-30% retardation)	2 (21-60% retardation)	2GAT	1 (10-30% retardation)	2 (21-60% retardation)	1 (10-30% retardation)	8.2%	73.9 % of paclobutrazol	–	–	–	–	–
CC(C)(C)C(O)(C#CCC1CC1)Cn1cncn1 (centres unmarked) [Compound 16, 2,2-Dimethyl-3-hydroxy-3-(3-cyclopropyl-prop-1-yne-lyl)-4-(1,2,4-triazol-1-yl)-butane]	–	31.8%	62.8%	–	34%	11%	24%	–	–	–	–	–	–	–	14%	100.0 % of paclobutrazol	3 (61-100%)	2 (31-60%)	2 (31-60%)	1 (10-30%)	G = Greening effect (Barley [5]): 1 (10-30%); G = Greening effect (Rice [6]): 2 (31-60%); I = Interligular or internodal length reduction (Rice [6]): 3 (61-100%); R = Retardation (Rice [6]): 3 (61-100%); T = Tillering or side shooting (Rice [6]): 1 (10-30%); G = Greening effect (Apple): 2 (31-60%)
CCCCC#CC(O)(Cn1cncn1)C(C)(C)CF (centres unmarked) [Compound 17, 2,2-dimethyl-1-fluoro-3-hydroxy-3-(hex-1-yne-1-yl)-4-(1,2,4-triazole-1-yl)-butane]	–	9.9%	54.5%	–	22%	–	24%	–	–	–	–	–	–	–	–	150.0 % of paclobutrazol	2 (31-60%)	3 (61-100%)	2 (31-60%)	1 (10-30%)	G = Greening effect (Wheat [7]): 1 (10-30%)
